For 14 molecules, Ki results are on record in US7265131B2, “Isoquinolinone derivatives and their use as therapeutic agents” (Exelixis, Inc., priority 2002, dated 2007).

T1 sequence (Q13133 whole entry): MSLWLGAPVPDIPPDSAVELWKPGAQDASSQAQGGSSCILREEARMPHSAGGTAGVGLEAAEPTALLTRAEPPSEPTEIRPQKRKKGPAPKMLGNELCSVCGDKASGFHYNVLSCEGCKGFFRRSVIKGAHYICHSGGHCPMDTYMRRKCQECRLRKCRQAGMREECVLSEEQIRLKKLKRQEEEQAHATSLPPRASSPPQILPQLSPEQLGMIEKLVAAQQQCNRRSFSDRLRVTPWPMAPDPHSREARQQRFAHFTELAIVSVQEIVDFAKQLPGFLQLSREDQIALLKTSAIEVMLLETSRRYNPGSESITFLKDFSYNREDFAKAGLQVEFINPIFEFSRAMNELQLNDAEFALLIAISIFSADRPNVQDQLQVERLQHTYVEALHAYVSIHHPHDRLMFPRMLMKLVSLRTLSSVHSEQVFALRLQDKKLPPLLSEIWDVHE
T1 sequence (P19793 whole entry, further chain): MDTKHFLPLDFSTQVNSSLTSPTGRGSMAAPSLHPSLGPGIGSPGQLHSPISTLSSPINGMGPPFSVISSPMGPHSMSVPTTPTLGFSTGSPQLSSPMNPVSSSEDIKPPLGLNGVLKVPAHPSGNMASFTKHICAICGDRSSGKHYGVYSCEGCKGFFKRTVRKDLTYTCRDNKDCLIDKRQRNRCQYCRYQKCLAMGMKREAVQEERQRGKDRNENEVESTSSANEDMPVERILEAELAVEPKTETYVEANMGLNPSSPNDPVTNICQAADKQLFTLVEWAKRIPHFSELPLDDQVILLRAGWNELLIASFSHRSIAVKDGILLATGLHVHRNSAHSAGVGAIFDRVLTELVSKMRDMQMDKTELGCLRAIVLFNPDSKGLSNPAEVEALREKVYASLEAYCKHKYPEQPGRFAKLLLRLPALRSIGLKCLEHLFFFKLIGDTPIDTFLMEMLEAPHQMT

This experiment addresses T1, LXRα (Homo sapiens, UniProt Q13133).
T1 construct: were made by cloning the appropriate full-length cDNAs into the pBacPakhis1 vector; poly-His (pBacPakhis1) (N); made in house; host or cells: Sf9 insect cells (baculovirus), crude lysate
The experiment can be described thus: Scintillation proximity assay (SPA), competition with 3H-24,25-epoxycholesterol. Type of experiment: binding. As to conditions: average Ki with respect to LXR α. As to the method:
The SPA assay measures the radioactive signal generated by the binding of ^3H-24,25-epoxycholesterol to LXRα or LXRβ. The basis of the assay is the use of SPA beads containing a scintillant, such that when binding to the receptor brings the labeled ligand into proximity with the bead, the energy from the label stimulates the scintillant to emit light. The light is measured using a standard microplate scintillation reader. The ability of a ligand to bind to a receptor can be measured by assessing the degree to which the compound can compete off a radiolabelled ligand with known affinity for the receptor.
1. Label: ^3H-24,25-epoxy-cholesterol (Amersham)
2. LXRα lysate: Baculovirus expressed LXRα/RXR heterodimer with RXR having a 6-HIS tag produced as a crude lysate
4. SPA beads: Ysi copper His-tag SPA beads (Amersham)
Baculovirus expression plasmids for human RXR α (accession No NM_002957), LXR a (accession No U22662), LXR β (accession No U07132) were made by cloning the appropriate full-length cDNAs into the pBacPakhis1 vector (Clontech, CA) following standard procedures. Insertion of the cDNAs into the pBAcPakhis1 vector polylinker created an in frame fusion to the cDNA to an N-terminal poly-His tag present in pBacPakhis1. Correct cloning was confirmed by restriction mapping, and/or sequencing.
Cell lysates were prepared by infecting healthy, Sf9 insect cells at a density of approximately 1.25×10^6/ml at 27° C., in a total volume of 500 mL per 1 L sized spinner flasks, cultured under standard conditions. To prepare LXRα lysate, insect cells were co-transfected with the LXR α expression cassette at an M.O.I of 0.5 to 0.8 and with the RXR expression cassette at a M.O.I. of approximately 1.6. To prepare LXRβ lysate, insect cells were co-transfected with the LXR β expression cassette at an M.O.I of approximately 1.6 and with the RXR expression cassette at a M.O.I. of approximately 1.6. In both cases cells were incubated for 48 hours at 27° C. with constant shaking prior to harvesting.
After incubation, cells were harvested by centrifugation and pelleted. Cell pellets were resuspended in two volumes of ice-cold freshly prepared extraction buffer (20 mM Tris pH 8.0, 10 mM Imidazole, 400 mM NaCl, containing one EDTA free protease inhibitor tablet (Roche Catalog No: 1836170) per 10 ml of extraction buffer).
Cells were homogenized slowly on ice using a Douncer to achieve 80-90% cell lysis. The homogenate was centrifuged in a pre-chilled rotor (Ti50 or Ti70, or equivalent) at 45,000 rpm for 30 minutes at 4° C. Aliquots of the supernatant were frozen on dry ice and stored frozen at −80° C. until quantification and quality control. Aliquots of the lysates were tested in the SPA assay to ensure lot to lot consistency, and via SDS-PAGE analysis after purification using Ni-NTA Resin (Qiagen) and adjusted for protein concentration and expression level prior to use in screening assays.
[^3H] 24,25 Epoxycholesterol (EC) solution: For a single 384-well plate (or 400 wells), 21 μL of [^3H] EC (specific activity 76.5 Ci/mmol, concentration 3.2 mCi/mL) was added to 4.4 mL of 2×SPA buffer to provide for a final concentration of 200 nM. For each additional 384-well plate, an additional 19.1 μL of [^3H] EC was added to 4.0 mL of additional 2×SPA buffer. The final concentration of [^3H] EC in the well was 50 nM.
LXRα lysate (prepared as above) was diluted with protein lysate dilution buffer. 1400 μL of diluted LXRα lysate was prepared per 384-well plate, (or 200 wells) and 1120 μL of diluted LXRα lysate was prepared for each additional 384-well plate.
SPA bead solution: For a 384-well plate (or 400 wells), 3.75 mL of 2×SPA buffer w/o EDTA, 2.25 mL of H2O, and 1.5 mL of Ysi His-tag SPA beads (vortex well before taking) were mixed together. For each additional 384-well plate, an additional 3.5 mL of 2×SPA buffer w/o EDTA, 2.1 mL of H2O, and 1.4 mL of Ysi His-tag SPA beads were mixed together. […]
In the case of `Cc1ccc(Cn2c(C#CC(C)(C)O)cc3ccccc3c2=O)c(C)c1` [2-(2,4-dimethylbenzyl)-3-(3-hydroxy-3-methylbut-1-ynyl)-2H-isoquinolin-1-one], the inhibition constant Ki was > 500 nM.
`Cc1ccc(Cn2c(-c3ccc(Oc4ccccc4)cc3)cc3ccccc3c2=O)c(C)c1` [2-(2,4-dimethylbenzyl)-3-(4-phenoxyphenyl)-2H-isoquinolin-1-one] yielded a Ki of 10 to 150 nM.
As for `Cc1cccc(-c2cc3ccccc3c(=O)n2Cc2ccc(C)cc2C)c1` [2-(2,4-dimethylbenzyl)-3-m-tolyl-2H-isoquinolin-1-one], the Ki was 150 to 500 nM.
With `Cc1ccc(Cn2c(-c3ccsc3)cc3ccccc3c2=O)c(C)c1` [2-(2,4-dimethylbenzyl)-3-thiophen-3-yl-2H-isoquinolin-1-one] the figure was > 500 nM.
Turning to `Cc1cccc(-c2cc3ccccc3c(=O)n2Cc2ccccc2)c1` [2-benzyl-3-m-tolyl-2H-isoquinolin-1-one], the inhibition constant (Ki) is > 500 nM.
As for `O=c1c2c(Cl)cccc2cc(-c2cc(-c3cc(C(F)(F)F)cc(C(F)(F)F)c3)co2)n1Cc1ccc(F)cc1F` [3-[4-(3,5-bis-trifluoromethylphenyl)furan-2-yl]-8-chloro-2-(2,4-difluorobenzyl)-2H-isoquinolin-1-one], the figure is 150 to 500 nM.
As for `Nc1ccc(-c2coc(-c3cc4cccc(Cl)c4c(=O)n3Cc3ccc(F)cc3F)c2)cc1C(F)(F)F` [3-[4-(4-amino-3-trifluoromethylphenyl)furan-2-yl]-8-chloro-2-(2,4-difluorobenzyl)-2H-isoquinolin-1-one], the figure is 10 to 150 nM; as for `O=c1c2c(Cl)cccc2cc(-c2ccc(Oc3ccccc3)cc2)n1Cc1ccc(F)cc1F` [8-chloro-2-(2,4-difluorobenzyl)-3-(4-phenoxyphenyl)-2H-isoquinolin-1-one], 10 to 150 nM.
With `O=c1c2c(Cl)cccc2cc(-c2ccc(Oc3cnccn3)cc2)n1Cc1ccc(F)cc1F` [8-chloro-2-(2,4-difluorobenzyl)-3-[4-(pyrazin-2-yloxy)phenyl]-2H-isoquinolin-1-one] the figure was 10 to 150 nM; with `CS(=O)(=O)c1ccc(-c2ccc(-c3cc4cccc(Cl)c4c(=O)n3Cc3ccc(F)cc3F)s2)cc1` [8-chloro-2-(2,4-difluorobenzyl)-3-[5-(4-methanesulfonylphenyl)thiophen-2-yl]-2H-isoquinolin-1-one], 10 to 150 nM; with `O=c1c2c(Cl)cccc2cc(-c2ccc(Oc3ccccc3)cc2)n1CC1CCCCC1` [8-chloro-2-cyclohexylmethyl-3-(4-phenoxyphenyl)-2H-isoquinolin-1-one], 10 to 150 nM.
`O=c1c2c(Cl)cccc2cc(-c2ccc(Oc3ccccc3)cc2)n1Cc1cccs1` [8-chloro-3-(4-phenoxyphenyl)-2-thiophen-2-ylmethyl-2H-isoquinolin-1-one]: the inhibitory constant (Ki) was in the range of 10 to 150 nM.
As to `CCOc1ccc(-c2csc(-c3cc4cccc(Cl)c4c(=O)n3Cc3ccc(F)cc3F)c2)cc1Cl` [8-chloro-3-[4-(3-chloro-4-ethoxyphenyl)thiophen-2-yl]-2-(2,4-difluorobenzyl)-2H-isoquinolin-1-one], the Ki was > 500 nM.
For `Cc1ccc(Cn2c(-c3ccc(Oc4ccccc4)cc3)cc3cccc(C)c3c2=O)cc1` [8-methyl-2-(4-methylbenzyl)-3-(4-phenoxyphenyl)-2H-isoquinolin-1-one], the Ki fell in the range of 10 to 150 nM.
